The structures appear in SMILES notation.

This test addresses T1, Alpha-2A adrenergic receptor (Sus scrofa, UniProt P18871).
T1 sequence (P18871 whole entry): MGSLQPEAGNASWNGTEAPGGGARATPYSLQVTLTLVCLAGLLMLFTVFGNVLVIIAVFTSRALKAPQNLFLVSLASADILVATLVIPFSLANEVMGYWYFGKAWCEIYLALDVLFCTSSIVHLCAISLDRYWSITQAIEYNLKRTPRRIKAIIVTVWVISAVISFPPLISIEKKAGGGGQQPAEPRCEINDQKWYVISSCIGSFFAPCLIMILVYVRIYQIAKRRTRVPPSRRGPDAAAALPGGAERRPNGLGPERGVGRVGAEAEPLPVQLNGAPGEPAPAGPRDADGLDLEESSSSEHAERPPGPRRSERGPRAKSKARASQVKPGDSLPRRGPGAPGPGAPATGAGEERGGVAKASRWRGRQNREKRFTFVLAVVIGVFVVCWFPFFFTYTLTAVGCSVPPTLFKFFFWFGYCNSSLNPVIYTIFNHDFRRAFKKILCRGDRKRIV
As usually defined, the Ki is the equilibrium dissociation constant of an inhibitor or competing ligand from its target. Low values mean tighter binding, high ones weaker binding. The compound `Clc1cccc(Cl)c1N=C1NCCN1` [2-(2,6-dichloroanilino)-2-imidazoline] showed a Ki of 85.1 nM. Then `Cc1cccc(C)c1N=C1NCCCS1` [(5,6-Dihydro-4H-[1,3]thiazin-2-yl)-(2,6-dimethyl-phenyl)-amine], with 3160 nM. The figure for `CNCC(O)c1ccc(O)c(O)c1` (stereo unspecified) [EPINEPHRINE] is 646 nM. `NC(N)=NN=Cc1c(Cl)cccc1Cl` [Guanabenz] gave a Ki of 57.5 nM. In turn, `Clc1cc(I)cc(Cl)c1N=C1NCCN1` [Iodoclonidine-p] came in with a Ki of 51.3 nM. The compound `CC(C)NCC(O)c1ccc(O)c(O)c1` (stereo not drawn) [Isoproterenol,(+)] had a Ki of over 10000 nM. Turning to `CCN1CCc2nc(N)oc2CC1` [NSC_169743], the Ki was over 10000 nM. As to `NCC(O)c1ccc(O)c(O)c1` (stereo not drawn) [Noradrenaline,(+)], the Ki came to 5620 nM. Then `Cc1cc(C(C)(C)C)c(O)c(C)c1CC1=NCCN1` [SMR000059324], with 35.5 nM; and `Brc1c(NC2=NCCN2)ccc2nccnc12` [UK 14,304], with 479 nM; and `Nc1cc(Cl)c(N=C2NCCN2)c(Cl)c1` [p-AMINOCLONIDINE], with 288 nM.

Values taken from BindingDB's records for PubMed 10900230 (University of Michigan, 2000).
